Test results: the NIST ThermoML archive (doi:10.1016/j.jct.2014.07.001)

Experiment: xn = mol fraction of the nth substance listed
Conditions: Drop volume

CCCC[n+]1cccc(C)c1.F[B-](F)(F)F [1-butyl-3-methylpyridinium tetrafluoroborate] + CCO
surface tension liquid-gas [mN/m]
Conditions | 293.15 K | 303.15 K | 313.15 K | 323.15 K
x1 = 0.0279 | 22.56 | 21.82 | 21.07 | 20.3
x1 = 0.0486 | 22.72 | 22.04 | 21.34 | 20.64
x1 = 0.0988 | 23.15 | 22.56 | 22.03 | 21.43
x1 = 0.2016 | 24.19 | 23.8 | 23.55 | 23.17
x1 = 0.2987 | 25.71 | 25.43 | 25.32 | 25.07
x1 = 0.3978 | 27.89 | 27.63 | 27.56 | 27.34
x1 = 0.5001 | 30.59 | 30.28 | 30.15 | 29.91
x1 = 0.5865 | 33.12 | 32.73 | 32.51 | 32.21
x1 = 0.6878 | 36.16 | 35.68 | 35.34 | 34.96
x1 = 0.7851 | 39.08 | 38.51 | 38.04 | 37.59
x1 = 0.887 | 42.04 | 41.38 | 40.81 | 40.3
x1 = 0.945 | 43.68 | 42.99 | 42.35 | 41.81
x1 = 1 | 45.21 | 44.48 | 43.8 | 43.24

CCCC[n+]1cccc(C)c1.F[B-](F)(F)F [1-butyl-3-methylpyridinium tetrafluoroborate] + CO
surface tension liquid-gas [mN/m]
Conditions | 293.15 K | 303.15 K | 313.15 K | 323.15 K
x1 = 0.0489 | 23.93 | 23.18 | 22.36 | 21.55
x1 = 0.1011 | 25.33 | 24.62 | 23.88 | 23.15
x1 = 0.1984 | 27.89 | 27.26 | 26.63 | 26.04
x1 = 0.2961 | 30.43 | 29.87 | 29.36 | 28.9
x1 = 0.4021 | 33.15 | 32.66 | 32.26 | 31.9
x1 = 0.4935 | 35.36 | 34.89 | 34.55 | 34.25
x1 = 0.5892 | 37.57 | 37.12 | 36.81 | 36.56
x1 = 0.688 | 39.67 | 39.2 | 38.86 | 38.62
x1 = 0.7395 | 40.72 | 40.22 | 39.87 | 39.6
x1 = 0.8001 | 41.87 | 41.35 | 40.95 | 40.65
x1 = 0.8803 | 43.3 | 42.72 | 42.23 | 41.86
x1 = 0.935 | 44.21 | 43.56 | 42.99 | 42.53
x1 = 1 | 45.21 | 44.48 | 43.8 | 43.24

CCCC[n+]1ccc(C)cc1.F[B-](F)(F)F [1-butyl-4-methylpyridinium tetrafluoroborate] + CCO
surface tension liquid-gas [mN/m]
Conditions | 293.15 K | 303.15 K | 313.15 K | 323.15 K
x1 = 0.0497 | 22.7 | 22.02 | 21.32 | 20.63
x1 = 0.0993 | 23.17 | 22.6 | 22.02 | 21.44
x1 = 0.1995 | 24.47 | 24.08 | 23.68 | 23.27
x1 = 0.2946 | 25.95 | 25.68 | 25.41 | 25.14
x1 = 0.36 | 27.2 | 26.98 | 26.77 | 26.55
x1 = 0.4269 | 28.57 | 28.38 | 28.22 | 28.04
x1 = 0.4882 | 29.99 | 29.81 | 29.65 | 29.49
x1 = 0.589 | 32.66 | 32.44 | 32.25 | 32.05
x1 = 0.7001 | 35.92 | 35.61 | 35.34 | 35.05
x1 = 0.7895 | 38.75 | 38.33 | 37.95 | 37.57
x1 = 0.8345 | 40.28 | 39.79 | 39.35 | 38.89
x1 = 0.8805 | 41.85 | 41.29 | 40.77 | 40.25
x1 = 1 | 45.82 | 45.09 | 44.41 | 43.71

CCCC[n+]1ccc(C)cc1.F[B-](F)(F)F [1-butyl-4-methylpyridinium tetrafluoroborate] + CO
surface tension liquid-gas [mN/m]
Conditions | 293.15 K | 303.15 K | 313.15 K | 323.15 K
x1 = 0.0247 | 23.3 | 22.55 | 21.71 | 20.88
x1 = 0.0983 | 25.35 | 24.66 | 23.92 | 23.23
x1 = 0.195 | 27.93 | 27.31 | 26.68 | 26.12
x1 = 0.2914 | 30.53 | 29.98 | 29.46 | 29.05
x1 = 0.3909 | 33.11 | 32.62 | 32.2 | 31.91
x1 = 0.4915 | 35.62 | 35.17 | 34.81 | 34.6
x1 = 0.5378 | 36.77 | 36.34 | 36.02 | 35.84
x1 = 0.61 | 38.46 | 38.04 | 37.73 | 37.57
x1 = 0.6875 | 40.19 | 39.77 | 39.45 | 39.29
x1 = 0.7911 | 42.37 | 41.9 | 41.55 | 41.32
x1 = 0.842 | 43.32 | 42.81 | 42.4 | 42.1
x1 = 0.8754 | 43.91 | 43.36 | 42.91 | 42.54
x1 = 1 | 45.82 | 45.09 | 44.41 | 43.71

CCCC[n+]1ccccc1.F[B-](F)(F)F [1-butylpyridinium tetrafluoroborate] + CCO
surface tension liquid-gas [mN/m]
Conditions | 303.15 K | 313.15 K | 323.15 K
x1 = 0.05 | 22.16 | 21.51 | 20.72
x1 = 0.1021 | 22.72 | 22.17 | 21.41
x1 = 0.1959 | 23.54 | 23.25 | 22.74
x1 = 0.2902 | 24.72 | 24.48 | 24.26
x1 = 0.3922 | 26.57 | 26.27 | 26.25
x1 = 0.4914 | 28.89 | 28.68 | 28.54
x1 = 0.5953 | 31.85 | 31.63 | 31.45
x1 = 0.6898 | 35.04 | 34.75 | 34.53
x1 = 0.7903 | 38.62 | 38.26 | 38.01
x1 = 0.8879 | 42.28 | 41.85 | 41.5
x1 = 0.94 | 44.15 | 43.62 | 43.24
x1 = 1 | 46.3 | 45.69 | 45.11

CCCC[n+]1ccccc1.F[B-](F)(F)F [1-butylpyridinium tetrafluoroborate] + CO
surface tension liquid-gas [mN/m]
Conditions | 293.15 K | 303.15 K | 313.15 K | 323.15 K
x1 = 0.025 | 23.33 | 22.59 | 21.77 | 20.96
x1 = 0.0527 | 24.1 | 23.41 | 22.64 | 21.9
x1 = 0.0987 | 25.37 | 24.73 | 24.04 | 23.38
x1 = 0.1944 | 27.89 | 27.37 | 26.74 | 26.23
x1 = 0.2933 | 30.44 | 29.92 | 29.38 | 28.96
x1 = 0.3978 | 33.04 | 32.55 | 32.07 | 31.7
x1 = 0.4934 | 35.37 | 34.9 | 34.46 | 34.11
x1 = 0.5891 | 37.67 | 37.21 | 36.77 | 36.46
x1 = 0.6784 | 39.74 | 39.26 | 38.82 | 38.5
x1 = 0.7864 | 42.16 | 41.64 | 41.17 | 40.81
x1 = 0.8724 | 44.06 | 43.5 | 42.97 | 42.54
x1 = 0.93 | 45.33 | 44.76 | 44.17 | 43.69
x1 = 1 | 46.9 | 46.3 | 45.69 | 45.11

CCC[n+]1ccccc1.F[B-](F)(F)F [1-propylpyridinium tetrafluoroborate] + CO
surface tension liquid-gas [mN/m]
Conditions | 293.15 K | 303.15 K | 313.15 K | 323.15 K
x1 = 0.0478 | 23.84 | 23.07 | 22.2 | 21.35
x1 = 0.0964 | 25.01 | 24.31 | 23.48 | 22.68
x1 = 0.1993 | 27.35 | 26.84 | 26.18 | 25.55
x1 = 0.3036 | 29.78 | 29.49 | 28.99 | 28.48
x1 = 0.3934 | 32.15 | 31.84 | 31.46 | 31.02
x1 = 0.4987 | 35.23 | 34.81 | 34.46 | 34.04
x1 = 0.5926 | 38.18 | 37.63 | 37.21 | 36.76
x1 = 0.6946 | 41.44 | 40.83 | 40.29 | 39.77
x1 = 0.7836 | 44.31 | 43.66 | 43.04 | 42.45
x1 = 0.8822 | 47.5 | 46.81 | 46.15 | 45.44
x1 = 0.945 | 49.5 | 48.78 | 48.1 | 47.36
x1 = 1 | 51.29 | 50.51 | 49.79 | 49.03

CCO [ethanol] + CCCC[n+]1ccc(C)cc1.F[B-](F)(F)F
x2 = 0
Conditions | surface tension liquid-gas [mN/m]
293.15 K | 22.28
303.15 K | 21.49
313.15 K | 20.66
323.15 K | 19.84

CCO [ethanol] + CCCC[n+]1cccc(C)c1.F[B-](F)(F)F
x2 = 0
Conditions | surface tension liquid-gas [mN/m]
293.15 K | 22.28
303.15 K | 21.49
313.15 K | 20.66
323.15 K | 19.84

CCO [ethanol] + CCCC[n+]1ccccc1.F[B-](F)(F)F
x2 = 0
Conditions | surface tension liquid-gas [mN/m]
303.15 K | 21.49
313.15 K | 20.66
323.15 K | 19.84

CO [methanol] + CCCC[n+]1ccc(C)cc1.F[B-](F)(F)F
x2 = 0
Conditions | surface tension liquid-gas [mN/m]
293.15 K | 22.6
303.15 K | 21.81
313.15 K | 20.93
323.15 K | 20.05

CO [methanol] + CCCC[n+]1cccc(C)c1.F[B-](F)(F)F
x2 = 0
Conditions | surface tension liquid-gas [mN/m]
293.15 K | 22.6
303.15 K | 21.81
313.15 K | 20.93
323.15 K | 20.05

CO [methanol] + CCCC[n+]1ccccc1.F[B-](F)(F)F
x2 = 0
Conditions | surface tension liquid-gas [mN/m]
293.15 K | 22.6
303.15 K | 21.81
313.15 K | 20.93
323.15 K | 20.05

CO [methanol] + CCC[n+]1ccccc1.F[B-](F)(F)F
x2 = 0
Conditions | surface tension liquid-gas [mN/m]
293.15 K | 22.6
303.15 K | 21.81
313.15 K | 20.93
323.15 K | 20.05
